From publication PMC4941420, “A Rational Approach for the Identification of Non-Hydroxamate HDAC6-Selective Inhibitors” (Scientific Reports, 2016)

Columns and labels:
HDAC2 = target: T1, HDAC2 (Homo sapiens, UniProt Q92769); experiment: In vitro enzymatic assay HDAC2 (Fluor de Lys); format: biochemical; conditions: average of at least 2 independent experiments in duplicates ± SEM
T1 construct: purchased Sigma Aldrich or Reaction Biology Corporation

[1] = Solubility remarks during testing; format: physicochemical; conditions: concentrations higher than 500 μM cannot be tested
HDAC8 = target: T2, HDAC8 (Homo sapiens, UniProt Q9BY41); experiment: In vitro enzymatic assay HDAC8 (Fluor de Lys); format: biochemical; conditions: average of at least 2 independent experiments in duplicates ± SEM
T2 construct: purchased Sigma Aldrich or Reaction Biology Corporation
T2 sequence (Q9BY41 1-377): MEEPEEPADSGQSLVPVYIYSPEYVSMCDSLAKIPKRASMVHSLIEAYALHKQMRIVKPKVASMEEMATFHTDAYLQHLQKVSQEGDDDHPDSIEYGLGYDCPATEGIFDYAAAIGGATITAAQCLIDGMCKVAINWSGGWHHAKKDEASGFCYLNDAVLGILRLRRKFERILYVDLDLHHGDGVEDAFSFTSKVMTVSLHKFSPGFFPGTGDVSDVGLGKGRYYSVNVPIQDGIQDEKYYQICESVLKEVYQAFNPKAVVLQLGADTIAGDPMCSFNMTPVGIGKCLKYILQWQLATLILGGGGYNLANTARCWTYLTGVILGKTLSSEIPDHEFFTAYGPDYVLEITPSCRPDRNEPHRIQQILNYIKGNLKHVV

Cytotoxicity XTT, HeLa = format: cell-based, human; conditions: human, HeLa cells, mean ± SD of 3 independent experiments in triplicate, read-out: cytotoxic IC50 HeLa
Method: HeLa and HEK 293 cells (ATCC CRL-1573) were cultured as described above and seeded into 96-well plates at 400 cells/well. Test and standard compounds were added to plate wells in triplicate (0.05% DMSO in culture medium) in a range of six concentrations. Following 72 h of incubation, […] of an activated XTT solution was added to the cells (1 mg/mL). The absorbance was measured at 450 nm after 2 h incubation at 37 °C. The growth of the compound-treated cells was compared with the growth of vehicle-treated control cells. IC50 values were calculated with GraphPad Prism 6.0.

[2] = test system: α-tubulin acetylation in HeLa cells; experiment: Acetyl-α-tubulin sandwich ELISA in HeLa cells; format: cell-based, human; conditions: 48 h
Method: The acetyl-α-tubulin sandwich ELISA Kit (Pathscan® #7204, Cell Signalling) was used to determine tubulin acetylation levels, and Western blotting was used to evaluate histone H4 acetylation, both methods applied to lysates of treated and non-treated HeLa cells (ATCC CCL-2). Cells were cultured in DMEM medium, 4.5 g/L glucose, L-glutamine (Invitrogen), supplemented with 10% heat-inactivated fetal bovine serum (FBS, Biowest), 100 units/mL penicillin, and 100 μg/mL streptomycin, and 1% non-essential amino acids (Invitrogen) at 37 °C with 5% CO2. Prior to ELISA experiments, cells were seeded into 6-well plates at 150,000 cells/well and transfected with the HDAC6-GFP construct (pEGFP.N1-HDAC6, Addgene)[58], using the Lipofectamine 2000 reagent (Invitrogen). Cells were then treated with test compounds, standards or vehicle (0.5% DMSO in culture medium) for 48 h. After the incubation time, cells were washed with cold DPBS (Invitrogen) and lysates were obtained by recovering cells in cold lysis buffer provided in the ELISA kit, supplemented with a protease inhibitor tablet (SigmaFast, Sigma Aldrich). Briefly, cells were harvested in DPBS and centrifuged. The cell pellet was suspended in 100 μL lysis buffer, vortexed, and kept on melting ice for 30 min. Lysates were then obtained by recovering the supernatant after a centrifugation step of 10 min at 11,000 g, 4 °C. Protein concentration was determined by fluorimetry using the Qubit protein assay kit (Invitrogen). Cell lysates were tested at 1 mg/mL following the instructions provided by the ELISA kit manufacturer. For the Western blotting, cells were seeded into 100 mm Petri dishes and treated for 6 h. After the incubation time, cells were washed with cold DPBS (Invitrogen) supplemented with a protease inhibitor tablet (Sigma Fast, Sigma Aldrich), and lysates were obtained by recovering cells in 100 μL cold lysis buffer (10 mM Hepes pH 7.9, 1.5 mM MgCl2, 10 mM KCl, 0.5 mM DTT, 1.5 mM PMSF, 0.2M HCl) the same way as described above. […]

T1 sequence (Q92769 whole entry): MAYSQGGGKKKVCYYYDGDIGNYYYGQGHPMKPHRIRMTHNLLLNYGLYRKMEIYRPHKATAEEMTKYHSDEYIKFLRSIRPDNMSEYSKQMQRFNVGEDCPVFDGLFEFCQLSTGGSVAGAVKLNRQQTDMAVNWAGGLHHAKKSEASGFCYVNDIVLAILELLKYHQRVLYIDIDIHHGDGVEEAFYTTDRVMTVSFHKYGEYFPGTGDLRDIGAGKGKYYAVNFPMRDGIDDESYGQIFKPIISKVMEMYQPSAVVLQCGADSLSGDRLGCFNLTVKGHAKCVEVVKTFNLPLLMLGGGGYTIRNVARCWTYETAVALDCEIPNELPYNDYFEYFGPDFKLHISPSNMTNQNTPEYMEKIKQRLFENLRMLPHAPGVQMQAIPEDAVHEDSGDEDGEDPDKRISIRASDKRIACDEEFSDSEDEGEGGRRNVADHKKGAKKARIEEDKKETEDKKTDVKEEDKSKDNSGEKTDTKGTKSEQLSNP

Structure (SMILES): NNC(=O)c1ccc(COc2ccccc2Cl)cc1 [AK-14]
- IC50 (HDAC2): > 1 mM
- solubility remark in HeLa cell assay [1]: solubility issues
- IC50 (HDAC8): > 300 µM
- IC50 at 72 h (Cytotoxicity XTT, HeLa): 299 ± 56.1 µM
- acetylated tubulin levels ([2]; 250 μM): less remarkable effect
- acetylated tubulin levels ([2]; 500 μM): significantly increase
